Columns and labels:
Conditions in all cases: exposure time 48 h
[1] = test system: Caenorhabditis elegans N2; experiment: mean nematode size ln(EXT) after 48 h, plate-adjusted (DMSO control set to 6) (ln(EXT), control-adjusted); higher = larger nematodes / less growth inhibition
In short: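 Synchronised C. elegans N2 L1 larvae were grown for 48 h at 20°C in K-medium containing killed OP50, 1% DMSO and 0.5–200 µM chemical, at 50 per well and 4–6 wells per treatment. The Biosort recorded extinction for each worm, and a growth model removed debris. Worm size was obtained by natural-logging these values and averaging them per well. For plate adjustment, the vehicle control mean was subtracted and 6 was added.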

[2] = test system: Caenorhabditis elegans N2; experiment: AC50 for larval growth inhibition (Hill fit); higher = less potent
In short: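 Synchronised C. elegans N2 L1 larvae, 50 per well in 96-well plates, were grown at 20°C for 48 h in K-medium with killed OP50, 1% DMSO and 0.5–200 µM chemical. Worm size was read on a COPAS Biosort as extinction, log-transformed and averaged per well, and only wells holding at least 10 worms were kept. AC50 was obtained by a constrained Hill fit using weighted genetic-algorithm regression, with out-of-range values censored.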

[3] = test system: Caenorhabditis elegans N2; experiment: lowest effective concentration for larval growth inhibition (size below effect threshold); higher = less potent
In short: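 L1 larvae of C. elegans N2 (50 per 96-well) were grown in K-medium with killed bacteria and 1% DMSO, with the chemical at 0.5, 1, 5, 10, 50, 100 or 200 µM, for 48 h at 20°C. Per-worm extinction from the Biosort stood for size and was log-transformed into well means. For each chemical, the lowest effective concentration is the first dose where plate-adjusted mean size falls under the threshold and stays under it at the higher doses, using a threshold of 5.665.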

Compound	mean nematode size ln(EXT) (ln) ([1]; 0.5 µM)	mean nematode size ln(EXT) (ln) ([1]; 1 µM)	mean nematode size ln(EXT) (ln) ([1]; 5 µM)	mean nematode size ln(EXT) (ln) ([1]; 10 µM)	mean nematode size ln(EXT) (ln) ([1]; 50 µM)	mean nematode size ln(EXT) (ln) ([1]; 100 µM)	mean nematode size ln(EXT) (ln) ([1]; 200 µM)	AC50 for larval growth inhibition [2] [µM]	lowest effective concentration [3] [µM]
CCCN(CCC)c1c([N+](=O)[O-])cc(S(N)(=O)=O)cc1[N+](=O)[O-] [Oryzalin]	5.9	5.91	5.84	5.72	5.27	4.95	4.56	> 200	50
CCCCN(CC)c1c([N+](=O)[O-])cc(C(F)(F)F)cc1[N+](=O)[O-] [Benfluralin]	5.76	5.73	5.82	5.7	5.31	5.04	4.16	175	50
CCCCCCCCN(C)C [N,N-Dimethyloctylamine]	5.85	5.83	5.81	5.79	5.85	5.88	5.65	> 200	200
O=S(=O)(O)C(F)(F)C(F)(F)C(F)(F)C(F)(F)C(F)(F)C(F)(F)F [Potassium perfluorohexanesulfonate]	5.85	5.87	5.87	5.85	5.76	5.55	5.31	> 200	100
C[C@]12C=CC(=O)C=C1CC[C@@H]1[C@@H]2C(=O)C[C@@]2(C)[C@H]1CC[C@]2(O)C(=O)CO [Prednisone]	6.09	5.82	5.85	5.87	5.86	5.47	5.62	52.4	100
CC(C)C(=O)Nc1ccc([N+](=O)[O-])c(C(F)(F)F)c1 [Flutamide]	5.89	5.88	5.89	5.62	4.96	4.82	4.05	112	10
C=C(C)C(=O)OCCC(F)(F)C(F)(F)C(F)(F)C(F)(F)C(F)(F)C(F)(F)F [3,3,4,4,5,5,6,6,7,7,8,8,8-Tridecafluorooctyl methacrylate]	5.88	5.84	5.84	5.73	5.6	5.45	5.57	23	50
O=C1C2CC=CCC2C(=O)N1SC(Cl)(Cl)Cl (stereo not drawn) [Captan]	5.8	5.75	5.73	5.84	5.45	4.27	3.67	85.6	50
Cl[C@H]1[C@H](Cl)[C@@H](Cl)[C@@H](Cl)[C@H](Cl)[C@H]1Cl [Lindane]	5.77	5.98	5.79	5.94	5.42	5.2	4.35	175	50
CCOP(=S)(OCC)Oc1nc(Cl)c(Cl)cc1Cl [Chlorpyrifos]	5.55	5.06	4.29	3.42	3.29	3.43	3.06	2.28	≤ 0.5
O=C(O)C1(c2ccc3c(c2)OC[C@H](Cc2ccc(-c4ccccc4)cc2)[C@H]3O)CCCC1	5.91	5.83	5.77	5.9	5.16	4.25	4.18	52.8	50
CCCCCCCCCCCCOS(=O)(=O)[O-].[Na+] [Sodium dodecyl sulfate]	5.87	5.81	5.75	5.47	4.99	4.66	4.69	24.5	10
C=CC(=O)OCCCCCC(C)C [Isooctyl acrylate]	5.42	5.47	5.59	5.64	5.7	5.68	5.52	> 200	200
O=C(O)CC(O)C(=O)O (stereo not drawn) [2-Hydroxybutanedioic acid]	5.83	5.82	5.8	5.81	5.83	5.61	5.58	> 200	100
Oc1ccc(Cl)cc1Cc1ccccc1 [Clorophene]	5.89	5.87	5.83	5.73	5.15	4.62	3.79	92	50
OC(c1ccc(Cl)cc1)(c1ccc(Cl)cc1)C(Cl)(Cl)Cl [Dicofol]	5.64	5.63	5.3	4.39	3.83	3.61	3.35	10.8	≤ 0.5
Nc1ccccc1N [1,2-Phenylenediamine]	5.84	5.95	5.92	5.74	5.66	5.46	5.19	> 200	50
CCN(CC)N=O [N-Nitrosodiethylamine]	5.96	5.9	5.89	5.87	5.77	5.75	5.66	> 200	200
CC(=O)NC1(c2cccc(F)c2)CCN(CC[C@@]2(c3ccc(Cl)c(Cl)c3)CN(c3ccccc3)C(=O)CO2)CC1	5.89	5.91	5.85	5.88	5.82	5.52	5.02	> 200	100

Compound	mean nematode size ln(EXT) (ln) ([1]; 0.5 µM)	mean nematode size ln(EXT) (ln) ([1]; 1 µM)	mean nematode size ln(EXT) (ln) ([1]; 5 µM)	mean nematode size ln(EXT) (ln) ([1]; 10 µM)	mean nematode size ln(EXT) (ln) ([1]; 50 µM)	mean nematode size ln(EXT) (ln) ([1]; 100 µM)	mean nematode size ln(EXT) (ln) ([1]; 200 µM)	AC50 for larval growth inhibition [2] [µM]	lowest effective concentration [3] [µM]
CCOP(=S)(Oc1cnc(C(C)(C)C)nc1)OC(C)C (stereo not drawn) [Tebupirimfos]	6	6.01	5.89	5.76	4.5	3.66	3.56	46.5	50
CSC(=O)c1cccc2nnsc12 [Acibenzolar-S-Methyl]	5.65	5.73	5.67	5.6	5.37	5.36	5.36	> 200	10
CC(C)COC(=O)CCCCC(=O)OCC(C)C [Diisobutyl adipate]	5.93	5.89	5.73	5.85	5.74	4.35	5.38	53.6	100
Clc1ccc(C(c2ccc(Cl)cc2)C(Cl)Cl)cc1 [p,p'-DDD]	5.59	5.57	3.62	3.7	3.68	3.57	3.14	1.88	≤ 0.5
Cc1ccc2ncccc2c1 [6-Methylquinoline]	5.98	5.83	5.87	5.76	5.74	5.67	5.52	> 200	200
COC(=O)CCCCC(=O)OC [Dimethyl adipate]	5.82	5.88	5.81	5.79	5.85	5.85	5.65	> 200	200
CCCCCCCCCCCCCCO [1-Tetradecanol]	5.94	5.92	5.87	5.61	3.67	3.57	3.42	19.7	10
COCCOc1cc2cc(C(=O)NC3CCN(C(C)C)CC3)n(CC(=O)Nc3ccc(Cl)cn3)c2cn1	5.85	5.84	5.82	5.77	4.98	4.13	5.19	47.5	50
CCOC(=O)C(C)(C)Oc1ccc(Cl)cc1 [Clofibrate]	6.01	5.8	5.86	5.81	5.75	5.78	5.54	> 200	200
OC12N=C(c3ccccc3)SC1Cc1cc(Cl)ccc12 (stereo not drawn)	5.69	5.74	5.5	5.45	4.53	4.08	3.96	48.6	5
c1ccc2c(c1)-c1cccc3c1c-2cc1ccccc13 [Benzo[b]fluoranthene]	5.22	4.39	4.09	4.15	4.17	5.53	4.32	< 0.5	≤ 0.5
O=C(O)C(F)(F)C(F)(F)C(F)(F)C(F)(F)C(F)(F)C(F)(F)C(F)(F)F [Perfluorooctanoic acid]	6	6	5.94	6.02	5.75	5.24	5.31	60.2	100
CCOP(=S)(OCC)OC(Cl)C(Cl)(Cl)Cl (stereo not drawn) [Chlorethoxyfos]	5.75	5.76	5.76	5.7	4.54	5.09	3.42	13.2	50
Clc1cc(Cl)c(Cl)cc1Cl [1,2,4,5-Tetrachlorobenzene]	5.97	5.98	6.07	6.11	5.34	4.83	3.82	110	50
CCCCCCCCCCCCCN1CC(C)OC(C)C1 (stereo not drawn) [Tridemorph]	5.89	5.94	5.84	5.85	5.73	5.49	4.26	174	100
CC(C)(C)C(O)/C(=C/c1ccc(Cl)cc1Cl)n1cncn1 (stereo not drawn) [Diniconazole]	5.97	5.84	5.68	5.59	4.97	3.98	4.28	38.3	10
[N-]=[N+]=[N-] [Sodium azide]	5.79	5.92	5.83	5.76	5.63	5.45	5.49	> 200	50
O=C(N[C@@H](Cc1ccccc1)[C@@H](O)C(=O)N1C[C@@H](O)[C@@H](O)C1)c1cc2cc(Cl)ccc2[nH]1 [Ingliforib]	5.94	5.79	5.75	5.85	5.79	5.46	5.44	> 200	100

From the supplement of paper PMC4858399
